# In patent US20230183193A1, “4-DIFLUOROMETHYL BENZOYL AMIDES WITH HERBICIDAL ACTION” (BAYER CROPSCIENCE AKTIENGESELLSCHAFT, priority 2017, published 2023):
# What was measured:
# [1] = tested on: Abutilon theophrasti; experiment: Pre-emergence herbicidal action, ABUTH; assay type: in vivo; settings: for Herbicidal efficacy against ABUTH: Table K; for herbicidal activity ABUTH: scored visually after 3 weeks vs untreated controls
# Procedure, shortened: (§1)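 Weed seeds were laid out in sandy loam and covered with soil, then the soil surface was treated with an aqueous suspension or emulsion of the formulated compound containing 0.2% wetting agent. Pots stayed in the greenhouse for 3 weeks before damage was rated visually against untreated plants.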
# [2] = tested on: Alopecurus myosuroides; experiment: Pre-emergence herbicidal action, ALOMY; assay type: in vivo
# Procedure, shortened: as §1
# [3] = tested on: Amaranthus retroflexus; experiment: Pre-emergence herbicidal action, AMARE; assay type: in vivo; settings: dosage 320 g/ha, scored visually after 3 weeks vs untreated controls
# Procedure, shortened: as §1
# [4] = tested on: Avena fatua; experiment: Pre-emergence herbicidal action, AVEFA; assay type: in vivo; settings: for herbicidal activity AVEFA: dosage 320 g/ha, scored visually after 3 weeks vs untreated controls
# Procedure, shortened: as §1
# [5] = tested on: Cyperus serotinus; experiment: Pre-emergence herbicidal action, CYPES; assay type: in vivo
# Procedure, shortened: as §1
# [6] = tested on: Matricaria inodora; experiment: Pre-emergence herbicidal action, MATIN; assay type: in vivo; settings: for Herbicidal efficacy against MATIN: Table K; for herbicidal activity MATIN: scored visually after 3 weeks vs untreated controls
# Procedure, shortened: as §1
# [7] = tested on: Polygonum convolvulus; experiment: Pre-emergence herbicidal action, POLCO; assay type: in vivo; settings: Table K
# Excerpt: 1. Pre-Emergence Herbicidal Action Against Harmful Plants Seeds of monocotyledonous and dicotyledonous weed plants and crop plants are laid out in sandy loam soil in wood-fiber pots and covered with soil. The compounds of the invention, formulated in the form of wettable powders (WP) or as emulsion concentrates (EC), are then applied to the surface of the covering soil in the form of an aqueous suspension or emulsion at a water application rate equating to […], with addition of 0.2% wetting agent. After the treatment, the pots are placed in a greenhouse and kept under good growth conditions for the trial plants. The damage to the test plants is scored visually after a test period of 3 weeks by comparison with untreated controls (herbicidal activity in percent (%): 100% activity=the plants have died, 0% activity=like control plants).
# For comparison, the herbicidal activity of numerous compounds according to the invention was tested with the structurally closest compounds known from the documents WO 2011/035874, WO 2012/028579 and WO 2012/126932, by the pre- and post-emergence method.
# [8] = tested on: Setaria viridis; experiment: Pre-emergence herbicidal action, SETVI; assay type: in vivo; settings: for herbicidal activity SETVI: dosage 320 g/ha, scored visually after 3 weeks vs untreated controls
# Procedure, shortened: as §1
# [9] = tested on: Stellaria media; experiment: Pre-emergence herbicidal action, STEME; assay type: in vivo; settings: dosage 320 g/ha, scored visually after 3 weeks vs untreated controls
# Procedure, shortened: as §1
# [10] = tested on: Viola tricolor; experiment: Pre-emergence herbicidal action, VIOTR; assay type: in vivo; settings: for Herbicidal efficacy against VIOTR: Table K; for herbicidal activity VIOTR: scored visually after 3 weeks vs untreated controls
# Procedure, shortened: as §1
# [11] = tested on: Abutilon theophrasti; experiment: Post-emergence herbicidal action, ABUTH; assay type: in vivo; settings: 80 g/ha, Table D
# Procedure, shortened: (§2)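 Post-emergence spray; one-leaf stage (2–3 wk after sowing), sandy loam, greenhouse. WP/EC in water, 600 to […], +0.2% wetting agent. Visual % damage vs untreated at ~3 wk; 100% = plants dead.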
# [12] = tested on: Alopecurus myosuroides; experiment: Post-emergence herbicidal action, ALOMY; assay type: in vivo; settings: for herbicidal activity ALOMY: Table C
# Procedure, shortened: as §2
# [13] = tested on: Amaranthus retroflexus; experiment: Post-emergence herbicidal action, AMARE; assay type: in vivo; settings: 80 g/ha, Table D
# Procedure, shortened: as §2
# [14] = tested on: Avena fatua; experiment: Post-emergence herbicidal action, AVEFA; assay type: in vivo
# Procedure, shortened: as §2
# [15] = tested on: Pharbitis purpureum; experiment: Post-emergence herbicidal action, PHBPU; assay type: in vivo; settings: 80 g/ha, Table D
# Procedure, shortened: as §2
# [16] = tested on: Setaria viridis; experiment: Post-emergence herbicidal action, SETVI; assay type: in vivo; settings: for herbicidal activity SETVI: Table C
# Procedure, shortened: as §2
# [17] = tested on: Stellaria media; experiment: Post-emergence herbicidal action, STEME; assay type: in vivo; settings: for Herbicidal activity STEME: Table D
# Procedure, shortened: as §2
# [18] = tested on: Viola tricolor; experiment: Post-emergence herbicidal action, VIOTR; assay type: in vivo; settings: for herbicidal activity VIOTR: Table D
# Procedure, shortened: as §2
# [19] = tested on: ECHCG; experiment: Post-emergence herbicidal action, ECHCG; assay type: in vivo; settings: 80 g/ha, Table C
# Procedure, shortened: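 Weed and crop plants grown in sandy loam in the greenhouse, treated at the one-leaf stage 2–3 weeks after sowing. Damage scored visually after about 3 weeks vs untreated controls (0% = control, 100% = dead).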
# [20] = tested on: ECHCG; experiment: Pre-emergence herbicidal action, ECHCG; assay type: in vivo, Echinochloa crus-galli
# [21] = dosage 320 g/ha, scored visually after 3 weeks vs untreated controls
compound,measurement,setting,value
CSc1c(C(F)F)ccc(C(=O)Nc2nnnn2C)c1C [Example 1-1],Herbicidal efficacy against ABUTH,[1]; dosage 20 g/ha,90
same,Herbicidal efficacy against ABUTH,[1]; dosage 80 g/ha,100
same,herbicidal activity ABUTH,[1]; dosage 320 g/ha,100%
same,Herbicidal efficacy against ALOMY,[2]; 20 g/ha,90
same,Herbicidal efficacy against ALOMY,[2]; 80 g/ha,90
same,herbicidal activity ALOMY,[2]; [21],100%
same,herbicidal activity AMARE,[3],100%
same,Herbicidal efficacy against AVEFA,[4]; 80 g/ha,90
same,herbicidal activity AVEFA,[4],100%
same,Herbicidal efficacy against CYPES,[5]; 20 g/ha,30
same,Herbicidal efficacy against CYPES,[5]; 80 g/ha,70
same,herbicidal activity CYPES,[5]; [21],80%
same,Herbicidal efficacy against MATIN,[6]; dosage 20 g/ha,70
same,Herbicidal efficacy against MATIN,[6]; dosage 80 g/ha,90
same,herbicidal activity MATIN,[6]; dosage 320 g/ha,100%
same,Herbicidal efficacy against POLCO,[7]; dosage 20 g/ha,60
same,Herbicidal efficacy against POLCO,[7]; dosage 80 g/ha,70
same,Herbicidal efficacy against SETVI,[8]; 20 g/ha,70
same,Herbicidal efficacy against SETVI,[8]; 80 g/ha,100
same,herbicidal activity SETVI,[8],100%
same,Herbicidal activity STEME,[9],100%
same,Herbicidal efficacy against VIOTR,[10]; dosage 20 g/ha,100
same,Herbicidal efficacy against VIOTR,[10]; dosage 80 g/ha,100
same,herbicidal activity VIOTR,[10]; dosage 320 g/ha,100%
same,herbicidal activity ABUTH,[11],100%
same,Herbicidal efficacy against ALOMY,[12]; 5 g/ha,60
same,Herbicidal efficacy against ALOMY,[12]; 20 g/ha,90
same,Herbicidal efficacy against ALOMY,[12]; 80 g/ha,90
same,herbicidal activity ALOMY,[12]; 80 g/ha,90%
same,herbicidal activity AMARE,[13],100%
same,Herbicidal efficacy against AVEFA,[14]; 5 g/ha,40
same,Herbicidal efficacy against AVEFA,[14]; 20 g/ha,90
same,Herbicidal efficacy against AVEFA,[14]; 80 g/ha,100
same,herbicidal activity AVEFA,"[14]; 80 g/ha, Table C",100%
same,Herbicidal activity PHBPU,[15],90%
same,Herbicidal efficacy against SETVI,[16]; 5 g/ha,100
same,Herbicidal efficacy against SETVI,[16]; 20 g/ha,100
same,Herbicidal efficacy against SETVI,[16]; 80 g/ha,100
same,herbicidal activity SETVI,[16]; 80 g/ha,100%
same,Herbicidal efficacy against STEME,[17]; 5 g/ha,100
same,Herbicidal efficacy against STEME,[17]; 20 g/ha,100
same,Herbicidal efficacy against STEME,[17]; 80 g/ha,100
same,Herbicidal activity STEME,[17]; 80 g/ha,100%
same,Herbicidal efficacy against VIOTR,[18]; 5 g/ha,100
same,Herbicidal efficacy against VIOTR,[18]; 20 g/ha,100
same,Herbicidal efficacy against VIOTR,[18]; 80 g/ha,100
same,herbicidal activity VIOTR,[18]; 80 g/ha,100%
same,Herbicidal activity ECHCG,[19],100%
same,Herbicidal efficacy against ECHCG,[20]; 20 g/ha,80
same,Herbicidal efficacy against ECHCG,[20]; 80 g/ha,100
"CSc1c(C(F)F)ccc(C(=O)Nc2ncnn2C)c1C [Example 4-1, 4-(difluoromethyl)-2-methyl-3-(methylsulfanyl)-N-(1-methyl-1H-1,2,4-triazol-5-yl)benzamide]",Herbicidal efficacy against ABUTH,[1]; dosage 80 g/ha,90
same,Herbicidal efficacy against ABUTH,[1]; dosage 320 g/ha,100
same,herbicidal activity ABUTH,[1]; dosage 320 g/ha,100%
same,Herbicidal efficacy against ALOMY,[2]; 320 g/ha,40
same,herbicidal activity AMARE,[3],100%
same,Herbicidal efficacy against AVEFA,[4]; 80 g/ha,30
same,Herbicidal efficacy against AVEFA,[4]; 320 g/ha,80
same,herbicidal activity AVEFA,[4],80%
same,Herbicidal efficacy against CYPES,[5]; 80 g/ha,30
same,Herbicidal efficacy against CYPES,[5]; 320 g/ha,50
same,Herbicidal efficacy against MATIN,[6]; dosage 80 g/ha,80
same,Herbicidal efficacy against MATIN,[6]; dosage 320 g/ha,90
same,herbicidal activity MATIN,[6]; dosage 320 g/ha,90%
same,Herbicidal efficacy against POLCO,[7]; dosage 80 g/ha,30
same,Herbicidal efficacy against POLCO,[7]; dosage 320 g/ha,30
same,Herbicidal efficacy against SETVI,[8]; 80 g/ha,80
same,Herbicidal efficacy against SETVI,[8]; 320 g/ha,100
same,herbicidal activity SETVI,[8],100%
same,Herbicidal activity STEME,[9],90%
same,Herbicidal efficacy against VIOTR,[10]; dosage 80 g/ha,100
same,Herbicidal efficacy against VIOTR,[10]; dosage 320 g/ha,100
same,herbicidal activity VIOTR,[10]; dosage 320 g/ha,100%
same,herbicidal activity ABUTH,[11],100%
same,Herbicidal efficacy against ALOMY,[12]; 20 g/ha,70
same,herbicidal activity ALOMY,[12]; 80 g/ha,80%
same,herbicidal activity AMARE,[13],100%
same,Herbicidal efficacy against AVEFA,[14]; 20 g/ha,20
same,Herbicidal activity PHBPU,[15],100%
same,Herbicidal efficacy against SETVI,[16]; 20 g/ha,60
same,herbicidal activity SETVI,[16]; 80 g/ha,100%
same,Herbicidal efficacy against STEME,[17]; 20 g/ha,80
same,Herbicidal activity STEME,[17]; 80 g/ha,100%
same,Herbicidal efficacy against VIOTR,[18]; 20 g/ha,100
same,herbicidal activity VIOTR,[18]; 80 g/ha,100%
same,Herbicidal activity ECHCG,[19],90%
same,Herbicidal efficacy against ECHCG,[20]; 80 g/ha,70
same,Herbicidal efficacy against ECHCG,[20]; 320 g/ha,100
